Test results reported in patent US5856480A, “Optically active compound” (Nippon Soda Co., Ltd., priority 1994, dated 1999).

Assays:
[1] = tested on: platelet aggregation induced by collagen; experiment: Inhibitory effect on platelet aggregation induced by collagen, in vitro, PRP; format: cell-based, rabbits; settings: Oryctolagus cuniculus, 20 μg/ml collagen, rabbit PRP, 3 min pre-incubation, measured 10 min, read-out: Inhibition of Platelet Aggregation (IC50), Collagen
Procedure: (§1) In vitro inhibitory activity of the compound of the present invention was evaluated on platelet aggregation each induced by adenosine diphosphate (ADP), collagen, arachidonic acid, U-46619 and thrombin, respectively, by using an aggregation meter (type: hematracer PAT-606, manufactured by Niko bioscience Co., Ltd). 0.38% citric acid-containing blood collected from rabbits was centrifuged at 1,200 rpm for 15 min. to thereby obtain platelet rich plasma (hereinafter referred to as PRP). The PRP obtained was further centrifuged at 3,500 rpm for 10 min., and the supernatant was used as platelet poor plasma (hereinafter referred to as PPP). The platelets in the PRP were prepared by dilution with PPP to a concentration of 2 to 5×10^8 cells/ml, and 10 μM of ADP, 20 μg/ml of collagen, 200 μg/ml of arachidonic acid, 10 μM of U-46619 and 0.5 U/ml of thrombin are used for the induction of platelet aggregation, respectively, where all of those concentrations are expressed in the final concentration. The test compound was dissolved in dimethyl sulfoxide (DMSO), and to 0.2 μl of the solution thus obtained, was added 0.2 ml of the sample of PRP prepared as described above, then the solution was placed for pre-incubation for 3 min. Then, each 22 μl of the said aggregation-inducing agents, ADP, collagen, U-46619 and thrombin, and 2.2 μl of arachidonic acid, were added thereto, respectively, then platelet aggregation was measured for 5 min., except for collagen, for which the measurement was conducted for 10 min. The inhibitory effect on platelet aggregation was expressed as inhibition rate (%) respective to the maximum aggregation rate obtained in the control plot. [formula]
(§2) A dose-response curve was prepared, and from which IC50, a dose attainable 50% inhibition of platelet aggregation, was determined.

[2] = tested on: platelet aggregation induced by arachidonic acid; experiment: Inhibitory effect on platelet aggregation induced by arachidonic acid, in vitro, PRP; format: cell-based, rabbits; settings: Oryctolagus cuniculus, 200 μg/ml arachidonic acid, rabbit PRP, 3 min pre-incubation, measured 5 min, read-out: Inhibition of Platelet Aggregation (IC50), Arachidonic Acid
Procedure: as §1, §2

[3] = tested on: platelet aggregation induced by adenosine diphosphate (ADP); experiment: Inhibitory effect on platelet aggregation induced by ADP, in vitro, PRP; format: cell-based, rabbits; settings: Oryctolagus cuniculus, 10 μM ADP, rabbit PRP, 3 min pre-incubation, measured 5 min, read-out: Inhibition of Platelet Aggregation (IC50), ADP
Procedure: as §1, §2

[4] = tested on: platelet aggregation induced by thrombin; experiment: Inhibitory effect on platelet aggregation induced by thrombin, in vitro, PRP; format: cell-based, rabbits; settings: Oryctolagus cuniculus, 0.5 U/ml thrombin, rabbit PRP, 3 min pre-incubation, measured 5 min, read-out: Inhibition of Platelet Aggregation (IC50), Thrombin
Procedure: as §1, §2

[5] = tested on: platelet aggregation induced by U-46619; experiment: Inhibitory effect on platelet aggregation induced by U-46619, in vitro, PRP; format: cell-based, rabbits; settings: Oryctolagus cuniculus, 10 μM U-46619, rabbit PRP, 3 min pre-incubation, measured 5 min, read-out: Inhibition of Platelet Aggregation (IC50), U-46619
Procedure: as §1, §2

[6] = Test on Stability (remaining rate by HPLC after storage at 80° C.); format: physicochemical; settings: for Remaining Rate (%), 0 day: 80° C.; for Remaining Rate (%), 0 day / Remaining Rate (%), After 4 days: sealed vial, HPLC; for Remaining Rate (%), After 4 days: after 4 days at 80° C., 5760 min
Procedure: To 30 ml of ethanol, was dissolved 2 g of (R)-(-)-4,5-dihydro-5-methyl-6-[4-[(2-propyl-3-oxo-1-cyclohexenyl) amino]phenyl]-3(2H)-pyridazinone under heating, and the solution was place for cooling under room temperature. After condensing the solvent of the solution under reduced pressure, the solution was then dried under reduced pressure by using a vacuum pump, thereby affording 1.5 g of the noncrystalline powder of said compound of which melting point being of from 102° to 106° C.
Each 10 mg of the noncrystalline powder obtained as described above and the crystalline form obtained in the Example 2 were weighed precisely, placed in a 20 ml volume vial then sealed, respectively, and preserved for 4 days at 80° C. Then, the vials were cooled to room temperature, and subsequently the determination of the remaining rate (%) of the test compounds were conducted by using high performance liquid chromatography (HPLC).
Column: TSK-gel 80 TM 4.6 mm I.D×250 mm (Manufactured by Tosoh Corporation)
Mobile phase: Mixture of acetonitrile and distillated water (Combining rate, 60/40)
Flow Speed: 1.0 ml/min., Temperature: 40° C., Wavelength for Detection: 254 nm

[7] = Residue of Solvent (water by Karl Fischer, ethanol by GC); format: physicochemical; settings: for Water Content (%): Karl Fischer moisture meter; for removal of remaining solvent by drying (in words): as demonstrated in Table 4; for Ethanol Content (%): gas chromatography, sample in DMSO
Procedure: By using the same noncrystalline powder and the crystalline form as the ones used in the Test Example 2, the amount of remaining solvent was analyzed.
Each 50 mg of the noncrystalline powder and the crystalline form were weighed precisely, on which water content was determined by using a Karl Fischer moisture meter, respectively. Whereas, each 50 mg of the noncrystalline powder and the crystalline form were weighed and dissolved in dimethyl sulfoxide (DMSO), respectively, and those solution were adjusted to a volume of 50 ml, respectively. A 2 μl portion out of the 50 ml solution was used for determining the ethanol content in the test sample by using gas chromatography (GC), respectively.
N2 : 25 ml/min, Air: 0.6 kg/cm^2, H2 : 0.6 kg/cm^2
Temperature : 180° C. at Column; 220° C. at Injection site, 220° C. at Detection site.

platelet aggregation = experiment: Inhibitory effect on platelet aggregation, overall statement; format: cell-based, rabbits; settings: same procedure as Test Example 1; crystalline compound of Example 2
Procedure: as §1, with “The platelets in the PRP were prepared by dilution with PPP to a concentration of 2 to 5×10^8 cells/ml, and 10 μM of ADP, 20 μg/ml of collagen, 200 μg/ml of arachidonic acid, 10 μM of U-46619 and 0.5 U/ml of thrombin are used for the induction of platelet aggregation, respectively, where all of those concentrations are expressed in the final concentration. The test compound was dissolved in dimethyl sulfoxide (DMSO), and to 0.2 μl of the solution thus obtained, was added 0.2 ml of the sample of PRP prepared as described above, then the solution was placed for pre-incubation for 3 min.” left out, “[formula]” left out

Compound: CCCC1=C(Nc2ccc(C3=NNC(=O)C[C@H]3C)cc2)CCCC1=O (single isomer, unassigned) [(R)-(-)-(I)]
- IC50 [1]: 2.5 µM
- IC50 [2]: 0.82 µM
- IC50 [3]: 2.9 µM
- IC50 [4]: 1.5 µM
- IC50 [5]: 0.38 µM

Compound: CCCC1=C(Nc2ccc(C3=NNC(=O)CC3C)cc2)CCCC1=O (racemic) [(±)-(I), 4,5-dihydro-5-methyl-6-[4-[(2-propyl-3-oxo-1-cyclohexenyl)amino]phenyl]-3(2H)-pyridazinone]
- IC50 [1]: 3.5 µM
- IC50 [2]: 1.7 µM
- IC50 [3]: 4.5 µM
- IC50 [4]: 3 µM
- IC50 [5]: 1.5 µM

Compound: CCCC1=C(Nc2ccc(C3=NNC(=O)C[C@@H]3C)cc2)CCCC1=O [(S)-(-)-(I)]
- IC50 [1]: 1010 µM
- IC50 [2]: 290 µM
- IC50 [3]: 780 µM
- IC50 [4]: 560 µM
- IC50 [5]: > 100 µM

Compound: CCCC1=C(Nc2ccc(C3=NNC(=O)C[C@H]3C)cc2)CCCC1=O [Noncrystalline powder, (R)-(-)-4,5-dihydro-5-methyl-6-[4-[(2-propyl-3-oxo-1-cyclohexenyl)amino]phenyl]-3(2H)-pyridazinone]
- Remaining Rate (%), 0 day [6]: 100%
- Remaining Rate (%), After 4 days [6]: 58%
- Water Content (%) [7]: 1.3%
- removal of remaining solvent by drying (in words) [7]: difficult to completely remove the remaining solvent
- Ethanol Content (%) [7]: 4.3%

Compound: CCCC1=C(Nc2ccc(C3=NNC(=O)C[C@H]3C)cc2)CCCC1=O [Crystalline form, (R)-(-)-4,5-dihydro-5-methyl-6-[4-[(2-propyl-3-oxo-1-cyclohexenyl)amino]phenyl]-3(2H)-pyridazinone]
- Remaining Rate (%), 0 day [6]: 100%
- stability (in words) ([6]; 4 days at 80° C., crystalline form versus noncrystalline powder): superior than that of the noncrystalline powder
- Remaining Rate (%), After 4 days [6]: 96%
- inhibitory effect on platelet aggregation (in words) (platelet aggregation): excellent inhibitory effect on platelet aggregation similar to the effect of the noncrystalline compound, (R)-(-)-(I)
- Water Content (%) [7]: 0.2%
- removal of remaining solvent by drying (in words) [7]: easy to dry
- Ethanol Content (%) [7]: 0.2%
